{
  "source": "BigSolDB 2.1",
  "data": [
    {"molecule": "O=C1C=CC(=O)c2ccccc21", "values": [
      {"measurement": "solubility (mole fraction)", "setting": "in acetone, 293.27 K", "value": 0.0362},
      {"measurement": "solubility (mole fraction)", "setting": "in acetone, 295.46 K", "value": 0.0373},
      {"measurement": "solubility (mole fraction)", "setting": "in acetone, 295.8 K", "value": 0.0377},
      {"measurement": "solubility (mole fraction)", "setting": "in acetone, 298.25 K", "value": 0.0399},
      {"measurement": "solubility (mole fraction)", "setting": "in acetone, 298.51 K", "value": 0.0403},
      {"measurement": "solubility (mole fraction)", "setting": "in acetone, 299.07 K", "value": 0.0411},
      {"measurement": "solubility (mole fraction)", "setting": "in acetone, 300.66 K", "value": 0.0437},
      {"measurement": "solubility (mole fraction)", "setting": "in acetone, 302.06 K", "value": 0.0467},
      {"measurement": "solubility (mole fraction)", "setting": "in acetone, 304 K", "value": 0.0503},
      {"measurement": "solubility (mole fraction)", "setting": "in acetone, 305.3 K", "value": 0.0532},
      {"measurement": "solubility (mole fraction)", "setting": "in acetone, 308.24 K", "value": 0.0584},
      {"measurement": "solubility (mole fraction)", "setting": "in acetone, 311.24 K", "value": 0.0639},
      {"measurement": "solubility (mole fraction)", "setting": "in acetone, 312.91 K", "value": 0.0683},
      {"measurement": "solubility (mole fraction)", "setting": "in acetone, 314.97 K", "value": 0.0727},
      {"measurement": "solubility (mole fraction)", "setting": "in acetone, 316.33 K", "value": 0.0767},
      {"measurement": "solubility (mole fraction)", "setting": "in acetone, 318.06 K", "value": 0.081},
      {"measurement": "solubility (mole fraction)", "setting": "in acetone, 319.63 K", "value": 0.0856},
      {"measurement": "solubility (mole fraction)", "setting": "in ethanol, 279.8 K", "value": 0.00145},
      {"measurement": "solubility (mole fraction)", "setting": "in ethanol, 285.78 K", "value": 0.00221},
      {"measurement": "solubility (mole fraction)", "setting": "in ethanol, 289.05 K", "value": 0.00277},
      {"measurement": "solubility (mole fraction)", "setting": "in ethanol, 292.72 K", "value": 0.00335},
      {"measurement": "solubility (mole fraction)", "setting": "in ethanol, 296.52 K", "value": 0.00412},
      {"measurement": "solubility (mole fraction)", "setting": "in ethanol, 299.87 K", "value": 0.00487},
      {"measurement": "solubility (mole fraction)", "setting": "in ethanol, 303.25 K", "value": 0.00596},
      {"measurement": "solubility (mole fraction)", "setting": "in ethanol, 305.99 K", "value": 0.00696},
      {"measurement": "solubility (mole fraction)", "setting": "in ethanol, 309.13 K", "value": 0.00825},
      {"measurement": "solubility (mole fraction)", "setting": "in ethanol, 311.85 K", "value": 0.00945},
      {"measurement": "solubility (mole fraction)", "setting": "in ethanol, 314.73 K", "value": 0.0109},
      {"measurement": "solubility (mole fraction)", "setting": "in ethanol, 316.84 K", "value": 0.0121},
      {"measurement": "solubility (mole fraction)", "setting": "in ethanol, 319.52 K", "value": 0.0134},
      {"measurement": "solubility (mole fraction)", "setting": "in ethanol, 321.15 K", "value": 0.0145},
      {"measurement": "solubility (mole fraction)", "setting": "in ethanol, 322.93 K", "value": 0.0157},
      {"measurement": "solubility (mole fraction)", "setting": "in ethanol, 328.25 K", "value": 0.0199},
      {"measurement": "solubility (mole fraction)", "setting": "in ethanol, 329.13 K", "value": 0.0212},
      {"measurement": "solubility (mole fraction)", "setting": "in ethanol, 331.34 K", "value": 0.0235},
      {"measurement": "solubility (mole fraction)", "setting": "in ethanol, 333.04 K", "value": 0.0256},
      {"measurement": "solubility (mole fraction)", "setting": "in ethanol, 334.13 K", "value": 0.0274},
      {"measurement": "solubility (mole fraction)", "setting": "in ethanol, 335.43 K", "value": 0.0294},
      {"measurement": "solubility (mole fraction)", "setting": "in n-butanol, 302.1 K", "value": 0.00657},
      {"measurement": "solubility (mole fraction)", "setting": "in n-butanol, 307.2 K", "value": 0.00908},
      {"measurement": "solubility (mole fraction)", "setting": "in n-butanol, 312.32 K", "value": 0.012},
      {"measurement": "solubility (mole fraction)", "setting": "in n-butanol, 317.1 K", "value": 0.0152},
      {"measurement": "solubility (mole fraction)", "setting": "in n-butanol, 319.33 K", "value": 0.017},
      {"measurement": "solubility (mole fraction)", "setting": "in n-butanol, 320.94 K", "value": 0.0183},
      {"measurement": "solubility (mole fraction)", "setting": "in n-butanol, 322.16 K", "value": 0.0199},
      {"measurement": "solubility (mole fraction)", "setting": "in n-butanol, 325.85 K", "value": 0.0238},
      {"measurement": "solubility (mole fraction)", "setting": "in n-butanol, 330.35 K", "value": 0.0307},
      {"measurement": "solubility (mole fraction)", "setting": "in n-butanol, 334.33 K", "value": 0.0377},
      {"measurement": "solubility (mole fraction)", "setting": "in n-butanol, 336.45 K", "value": 0.0434},
      {"measurement": "solubility (mole fraction)", "setting": "in n-butanol, 339.23 K", "value": 0.05},
      {"measurement": "solubility (mole fraction)", "setting": "in n-butanol, 341.3 K", "value": 0.056},
      {"measurement": "solubility (mole fraction)", "setting": "in n-butanol, 343.26 K", "value": 0.0624},
      {"measurement": "solubility (mole fraction)", "setting": "in n-butanol, 344.6 K", "value": 0.0695},
      {"measurement": "solubility (mole fraction)", "setting": "in n-butanol, 346.03 K", "value": 0.0763},
      {"measurement": "solubility (mole fraction)", "setting": "in toluene, 294.1 K", "value": 0.0476},
      {"measurement": "solubility (mole fraction)", "setting": "in toluene, 297.82 K", "value": 0.0537},
      {"measurement": "solubility (mole fraction)", "setting": "in toluene, 300.35 K", "value": 0.0585},
      {"measurement": "solubility (mole fraction)", "setting": "in toluene, 302.68 K", "value": 0.0631},
      {"measurement": "solubility (mole fraction)", "setting": "in toluene, 304.44 K", "value": 0.0668},
      {"measurement": "solubility (mole fraction)", "setting": "in toluene, 306.58 K", "value": 0.0723},
      {"measurement": "solubility (mole fraction)", "setting": "in toluene, 310.16 K", "value": 0.081},
      {"measurement": "solubility (mole fraction)", "setting": "in toluene, 313.15 K", "value": 0.089},
      {"measurement": "solubility (mole fraction)", "setting": "in toluene, 315.25 K", "value": 0.094},
      {"measurement": "solubility (mole fraction)", "setting": "in toluene, 317.27 K", "value": 0.0994},
      {"measurement": "solubility (mole fraction)", "setting": "in toluene, 319.93 K", "value": 0.107},
      {"measurement": "solubility (mole fraction)", "setting": "in toluene, 321.45 K", "value": 0.113},
      {"measurement": "solubility (mole fraction)", "setting": "in toluene, 322.53 K", "value": 0.116},
      {"measurement": "solubility (mole fraction)", "setting": "in toluene, 322.93 K", "value": 0.118},
      {"measurement": "solubility (mole fraction)", "setting": "in toluene, 327.2 K", "value": 0.133},
      {"measurement": "solubility (mole fraction)", "setting": "in toluene, 330.45 K", "value": 0.145},
      {"measurement": "solubility (mole fraction)", "setting": "in toluene, 331.95 K", "value": 0.153}
    ]}
  ]
}
